Data as given in patent US8642633B2, “Di-substituted amides for enhancing glutamatergic synaptic responses” (Cortex Pharmaceutical, Inc., priority 2007, dated 2014).

Experiments:
[1] = test system: d-amphetamine stimulated locomotion in mice; assay: Inhibition of d-amphetamine stimulated locomotion; assay type: in vivo; conditions: Mus musculus, ip, 18 mpk i.p., d-amphetamine 2 mg/kg
Procedure: B. Behavioral Testing: Inhibition of d-Amphetamine Stimulated Locomotion
The ability of the invention compounds to inhibit d-Amphetamine stimulated locomotor activity was assayed according to the following procedure. Male CD1 mice, 25-30 gm body weight, were brought into the experimental room and allowed at least 30 min of acclimation. Each mouse was placed into the testing enclosure with an infrared beam array that automatically monitors the animal's activity. Mice were habituated in the testing enclosure for 20 min, and then returned to their home cage. Mice were dosed intraperitoneally with test compound in appropriate vehicle 5 minutes before d-Amphetamine injection (2 mpk). Ten minutes after d-Amphetamine injection, mice were tested for locomotor activity for a total of […]. The data was computer collected and expressed as “arbitrary movement units.” All data were analyzed by comparing the groups treated with the test compound to the vehicle control group. The data shown is the % inhibition of hyperactivity induced by acute administration of 2 mg/kg d-amphetamine in mice. The compounds tested produced a statistically significant inhibition of d-amphetamine stimulated locomotion.
Male CD1 mice, 25-30 gm body weight, were brought into the experimental room and allowed at least 30 min of acclimation. Each mouse was placed into the testing enclosure with an infrared beam array that automatically monitors the animal's activity. Mice were habituated in the testing enclosure for 20 min, and then returned to their home cage. Mice were dosed intraperitoneally with test compound in appropriate vehicle 5 minutes before d-Amphetamine injection. Ten minutes after d-Amphetamine injection, mice were tested for locomotor activity for a total of 15 minutes. The data was computer collected and expressed as “arbitrary movement units.” All data were analyzed by comparing the groups treated with the test compound to the vehicle control group.

AMPA receptor = assay: In vivo electrophysiology: field EPSP amplitude in the dentate gyrus of anesthetized animals; design: species or system rat; conditions: rat, 10mpk i.p.
Procedure: A. Enhancement of AMPA Receptor Function In Vivo.
Synaptic responses mediated by AMPA receptors are increased according to the method of the invention, using the compounds described herein.
(§1) The electrophysiological effects of the invention compounds were tested in vivo in anesthetized animals according to the following procedures. Animals are maintained under anesthesia by phenobarbital administered using a Hamilton syringe pump. Stimulating and recording electrodes are inserted into the perforant path and dentate gyrus of the hippocampus, respectively. Once electrodes are implanted, a stable baseline of evoked responses are elicited using single monophasic pulses (100 μs pulse duration) delivered at 3/min to the stimulating electrode. Field EPSPs are monitored until a stable baseline is achieved (about 20-30 min), after which a solution of test compound is injected intraperitoneally and evoked field potentials are recorded. Evoked potentials were recorded for approximately 2 h following drug administration or until the amplitude of the field EPSP returns to baseline. In the latter instance, it is common that an iv administration is also carried out with an appropriate dose of the same test compound. Invention compounds were assayed in the in vivo electrophysiology assay described above and data for representative test compounds is shown in column 1 in Table 1.
The electrophysiological effects of invention compounds were tested in vivo in anesthetized animals according to the following procedures.
as §1, with “Animals” for “The electrophysiological effects of the invention compounds were tested in vivo in anesthetized animals according to the following procedures. Animals”, “are” for “were”, “compound.” for “compound. Invention compounds were assayed in the in vivo electrophysiology assay described above and data for representative test compounds is shown in column 1 in Table 1.”

melting point [°C]	Structure (SMILES)	inhibition in vivo at 18 mg/kg [1] [%]	In vivo Electrophysiology: % increase in the amplitude of the field EPSP in the dentate gyrus of rat (AMPA receptor) [%]
117 to 118	CN(C(=O)c1ccc2nonc2c1)C1CC=C(F)CC1 (stereo not drawn) [Example 41, N-(4-fluorocyclohex-3-en-1-yl)-N-methyl-[2,1,3]-benzoxadiazole-5-carboxamide]	67	18
175 to 176	CN(C(=O)c1ccc2nonc2c1)[C@H]1CC[C@](C)(O)CC1 [Example 45, N-(trans-4-hydroxy-4-methylcyclohexyl)-N-methyl-[2,1,3]-benzoxadiazole-5-carboxamide]	122	19
